This series is described as follows: Cleavage of PCL denatonium conjugate in collected saliva. Format: in vitro ADME, human. Particulars: agitation, mean ± s.d. The text has this: Volunteers were enrolled for a cross-sectional study. One group had peri-implant disease (defined as peri-implantitis or mucositis), the other group were healthy volunteers (asymptomatic patients with at least one dental implant). Unstimulated saliva was collected using an absorbent device. Sulcus fluid was collected from the peri-implant zone using standardized, commercially available MMP-8 collection strips and sent to Dentognostics GmbH (Jena, Germany) for analysis (referred to as chair-side test). Determination of total MMP activity in saliva samples was conducted using the human MMP-8 activity assay (QuickZyme, Leiden, the Netherlands) according to the manufacturer’s instructions. Saliva samples from the cross-sectional study were incubated with D-CLAN3Q (ID #1c) in MMP-8 buffer and cleavage was analyzed by HPLC. Further details are given in the Supplementary Methods.
For the collection of sulcus fluid and saliva from peri-implant d iseased p atien ts and fro m health y volunteers, a cross-section al stud y was initiated with the patient group having either a mucositis or a per i-implantitis vs. health y control. […] In this comparative study, the ability of the sensor diagnostic was assessed to discriminate saliva collected fro m p atien ts with peri -imp lan t disease to as ymp to matic carriers of at least on e i mplant (referred to as healthy control). […]

The structures appear in SMILES notation. Where “and” joins values, the source holds several entries; their conditions need not be identical. Identical values can stand only once. Where a SMILES comes first, the peptide text is derived from it. [ ]: non-standard residue; d: D form. The star is where a group is joined. X1 = CC[N+](CC)(CC(=O)Nc1c(C)cccc1C)Cc1cccc(C(=O)*)c1; Aha = [N-]=[N+]=NCC[C@H](N)C(=O)O

In the case of `CC[C@H](C)[C@H](NC(=O)CNC(=O)[C@H](CCC(N)=O)NC(=O)[C@@H]1CCCN1C(=O)CNC(=O)c1cccc(C[N+](CC)(CC)CC(=O)Nc2c(C)cccc2C)c1)C(=O)N[C@@H](C)C(=O)NCC(=O)N[C@@H](CCC(N)=O)C(=O)N[C@@H](CCN=[N+]=[N-])C(=O)N[C@@H](CCC(N)=O)C(=O)O` [ID #1c] (X1-GPQGIAGQ[Aha]Q-OH), the “Cleavage in saliva, healthy subjects, 5-10 min” value (saliva of healthy volunteers (n = 14) 1:1 with 0.1 mg/mL peptide in MMP buffer pH 6.8-7.0, 37 °C, HPLC decrease of main peak) is given as 1.5 ± 0.8%. Under “saliva of patients with peri-implant disease (n = 19) 1:1 with 0.1 mg/mL peptide in MMP buffer pH 6.8-7.0, 37 °C, HPLC”, the “Cleavage in saliva, diseased subjects, 5-10 min” value is 4.2 ± 3.34% and < 5%.

These data come from PMC5557808 (Nature Communications, 2017).
